Tested on: second amniotic fluid-derived cell line
Test: Two high dose trichostatin A treatments (first 48 h), gene expression by RT-PCR (Example 9);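 as to Gata-1 RT-PCR detection cycle: lower cycle number means higher gene expression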;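 as to HNF-3 beta RT-PCR detection cycle: lower cycle number means higher gene expression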
Assay type: cell-based, human
Details: for Gata1 gene expression / HNF-3 beta gene expression / Insulin gene expression / Pdx-1 gene expression / sox17 gene expression: 1.25 μM 0-48 h + 96-120 h
Experimental: Several cell lines obtained from different amniotic fluid specimens (see Example 14) and pancreas donors (see Example 13) were tested with similar results. Two lines at similar passage number but derived from different amniotic fluid specimens are shown in Table VIII-A and Table VIII-B for this example. One of these cell lines was also used in examples 2 and 4 above. In addition, this example also contains comparison data in Table VIII-C and Table VIII-D for a single pancreatic-derived stromal line grown to early and late passage number.
Amniotic fluid derived cells or pancreatic-derived stromal cells were seeded into 24-well tissue culture plates at a density of 5000/cm^2 and cultured in AMNIOMAX (Invitrogen) or DMEM with 10% FBS respectively under standard cell culture conditions until confluent. After reaching confluence, amniotic fluid derived cells were treated at time 0 hours with a dose of 1.25 μM trichostatin A, and pancreatic-derived stromal cells were treated with a dose of 5.0 μM trichostatin A solubilized in DMSO and medium. At time 48 hours, cell cultures underwent a complete medium change to remove all traces of trichostatin A. At time 96 hours, cell cultures were re-fed with fresh medium and received a second dose of trichostatin A at the same concentration as used previously. At time 120 hours, cell cultures again underwent a complete medium change and were cultured for an additional 24 hours or […] total incubation time. Samples were taken for RT-PCR at the times indicated in Table IX-A to D. RNA samples were obtained daily from the start of the experiment. Culture medium was removed, and cells were washed with PBS then collected in RLT with β-mercaptoethanol (Qiagen). RNA was purified using the RNeasy Mini Kit (Qiagen) and RNA quantity and quality was determined using a spectrophotometer. cDNA was made using the iScript cDNA synthesis kit (BioRad). Human pancreas cDNA was included as a control. Results were normalized against GAPDH expression levels.
Gene expression levels of Sox17, HNF-3 beta, Pdx-1, insulin, and glucagon were analyzed in amniotic-derived cells, while expression levels of glucagon, insulin, HNF-3 beta, and Pdx-1 were analyzed in pancreas-derived cells. Samples of 20 ng cDNA was used in each Real-Time PCR reaction. RT-PCR was performed on the Applied Biosystems 7500, according to the methods described in Example 15. The data were analyzed using the accompanying software.
Real-time PCR amplifcation and quantitative analysis. Unless otherwise stated, all reagents were purchased from Applied Biosystems. Real-time PCR reactions were performed using the ABI PRISM™ 7500 Sequence Detection System. TAQMAN™ FAST UNIVERSAL PCR MASTER MIX™ (ABI, CA) was used with 20 ng of reverse transcribed RNA in a total reaction volume of 20 μl. Each cDNA sample was run in duplicate to allow correction of pipetting errors. Primers and FAM-labeled TAQMAN™ probes were used at concentrations of 200 nM. The level of expression for each target gene was normalized using the pre-developed Applied Biosystem's human glyceraldehyde-3-phosphate dehydrogenase (GAPDH) endogenous control kit. Primers and probes were designed using either ABI PRISM PRIMER EXPRESS™ software or a pre-developed ABI gene analysis kit. For each gene, either one of the primers or the probe were designed to be exon-boundary spanning. This eliminated the possibility of the primers/probe binding to any genomic DNA present. The primer and probe sets are listed as follows: Pdx-1 (Hs00426216), Insulin (Hs00355773), glucagon (Hs00174967), and FoxA2 (HNF 3-beta) (Hs00232764). The remaining primers were designed using the PRIMERS program (ABI, CA). After an initial 95° C. incubation for 20 sec, samples were cycled 40 times in two stages: a denaturation step at 95° C. for 3 sec, followed by an annealing/extension step at 60° C. for 30 sec. […]

[1] = 1.25 μM, following the second treatment

Q: For CC(/C=C/C(=O)NO)=C\[C@@H](C)C(=O)c1ccc(N(C)C)cc1 [trichostatin A], which Gata1 gene expression (24 hrs) is on record?
A: + (detectable between 35 and 40 cycles by RT-PCR)

Q: What about the “HNF-3 beta gene expression” value (24 hrs) of the same molecule?
A: +++ (detectable at less than 35 cycles by RT-PCR with SE less than 0.9)

Q: And the Insulin gene expression (24 hrs)?
A: nd (not detectable at >40 cycles by RT-PCR)

Q: And the Pdx-1 gene expression (24 hrs)?
A: ++ (detectable at less than 35 cycles by RT-PCR with SE greater than 0.9)

Q: What about the sox17 gene expression (24 hrs) of the same molecule?
A: +++ (detectable at less than 35 cycles by RT-PCR with SE less than 0.9)

Q: What about the Gata1 gene expression (48 hrs) of the same molecule?
A: nd (not detectable at >40 cycles by RT-PCR)

Q: And the “HNF-3 beta gene expression” value (48 hrs)?
A: +++ (detectable at less than 35 cycles by RT-PCR with SE less than 0.9)

Q: What about the Insulin gene expression (48 hrs) of the same molecule?
A: nd (not detectable at >40 cycles by RT-PCR)

Q: And the Pdx-1 gene expression (48 hrs)?
A: + (detectable between 35 and 40 cycles by RT-PCR)

Q: What about the sox17 gene expression (48 hrs) of the same molecule?
A: +++ (detectable at less than 35 cycles by RT-PCR with SE less than 0.9)

Q: And the Gata1 gene expression (72 hrs)?
A: nd (not detectable at >40 cycles by RT-PCR)

Q: And the “HNF-3 beta gene expression” value (72 hrs)?
A: +++ (detectable at less than 35 cycles by RT-PCR with SE less than 0.9)

Q: And the Insulin gene expression (72 hrs)?
A: nd (not detectable at >40 cycles by RT-PCR)

Q: What about the Pdx-1 gene expression (72 hrs) of the same molecule?
A: nd (not detectable at >40 cycles by RT-PCR)

Q: And the sox17 gene expression (72 hrs)?
A: +++ (detectable at less than 35 cycles by RT-PCR with SE less than 0.9)

Q: And the Gata1 gene expression (96 hrs)?
A: nd (not detectable at >40 cycles by RT-PCR)

Q: And the “HNF-3 beta gene expression” value (96 hrs)?
A: + (detectable between 35 and 40 cycles by RT-PCR)

Q: And the Insulin gene expression (96 hrs)?
A: nd (not detectable at >40 cycles by RT-PCR)

Q: And the Pdx-1 gene expression (96 hrs)?
A: nd (not detectable at >40 cycles by RT-PCR)

Q: And the sox17 gene expression (96 hrs)?
A: +++ (detectable at less than 35 cycles by RT-PCR with SE less than 0.9)

Q: What about the Gata1 gene expression (120 hrs) of the same molecule?
A: + (detectable between 35 and 40 cycles by RT-PCR)

Q: What about the “HNF-3 beta gene expression” value (120 hrs) of the same molecule?
A: +++ (detectable at less than 35 cycles by RT-PCR with SE less than 0.9)

Q: And the Insulin gene expression (120 hrs)?
A: nd (not detectable at >40 cycles by RT-PCR)

Q: And the Pdx-1 gene expression (120 hrs)?
A: +++ (detectable at less than 35 cycles by RT-PCR with SE less than 0.9)

Q: And the sox17 gene expression (120 hrs)?
A: +++ (detectable at less than 35 cycles by RT-PCR with SE less than 0.9)

Q: What about the “HNF-3 beta RT-PCR detection cycle” value (1.25 μM, by 96 hours) of the same molecule?
A: 37 cycles

Q: What about the “HNF-3 beta RT-PCR detection cycle” value (1.25 μM, first 72 hours) of the same molecule?
A: 34 cycles

Q: What about the “Pdx-1 RT-PCR detection cycle” value (1.25 μM, following the initial 48-hour treatment) of the same molecule?
A: 35 cycles

Q: What about the “Gata-1 RT-PCR detection cycle” value [1] of the same molecule?
A: 38 cycles

Q: What about the “HNF-3 beta RT-PCR detection cycle” value [1] of the same molecule?
A: 33 cycles

Q: What about the “Pdx-1 RT-PCR detection cycle” value [1] of the same molecule?
A: 34 cycles

— patent publication US20080063628A1, “METHODS TO PROMOTE CELL DIFFERENTIATION” (priority 2006, published 2008)
